What is called IC50 is the concentration at which inhibition is half-maximal. A higher IC50 goes with lower potency.

Assay [1] deals with KM12C (RONΔ160). As to the kind of experiment: MTS assay KM12C (Experimental Example 6). It counts as cell-based. As to conditions: Homo sapiens, 72 hours. How it is done:
In MTS assay for Example 18 and Comparative Example 1, KM12C cell line was seeded at 1,000 cells per well into 96-well plates. After 24 hours, the cells were treated with various concentrations (0.000001 uM to 10 uM) of Example 18 and Comparative Example 1 in 100 ul of 10% FBS-MEM medium (Welgene) per well. Subsequently, the cells were incubated for 72 hours. Then, 20 μl of MTS solution (Promega) was added thereto, and incubation was performed for 2 hours. Then, the absorbance was measured at 490 nm. The IC50 values for Example 18 and Comparative Example 1 were calculated using GraphPad Prism™ 5 to investigate cytotoxicity.
A general note: Tetrazolium dyes change colour on reduction, which living cells bring about.

The subject of assay [2] is KM12C (RONΔ160). As to the kind of experiment: Cell death-inducing ability, trypan blue exclusion, KM12C. As to conditions: 48 hours. The assay is classed as cell-based, human. How it is done:
The cell death-inducing ability of Example 18 and Comparative Example 1 was measured in KM12C with RON mutant (Δ160), a cetuximab-resistant cell line, and Colo320HSR cell line, a cell line not expressing RON. The two colon cancer cell lines were seeded, respectively, onto 60-mm plates at 2×10^5 cells. Then, after 24 hours, while performing medium exchange, the cells were subjected to treatment with the sample compounds at respective concentrations (1 μM, 5 μM) for 48 hours. After 48 hours, the cells and cell suspensions were collected (1,500 rpm, 3 minutes), and live cells and dead cells were quantitated (n=2) through trypan blue (15250-061, Gibco) exclusion assay.

Assay [3] deals with colon cancer patient-derived cell line in which RON is not expressed. As to the kind of experiment: Cell death in colon cancer patient-derived cell line, active RON negative (immunofluorescence). Particulars: 5 ug, 48 hours, KRAS normal. The assay is classed as cell-based, human. How it is done: The following condition and methods were used to perform the present experiment. […] Then, the respective cell lines were seeded at 5×10^5 cells onto 24-well plates, in which one sterile 12 mmΦ microscope cover glass was placed on each well, and incubated. The respective colon cancer patient-derived cell lines under incubation were subjected to treatment with Example 18 and Comparative Example 1, respectively, at 5 ug, and then incubated for 48 hours. Each incubated plate was washed twice with PBS, and then fixed with 100% Me-OH at room temperature for 5 minutes. The Me-OH was removed, and washing with PBS was performed three times for 5 minutes each. Then, 100 ul of 0.1% Triton X-100 (in PBS) was dispensed thereinto and permeabilization was allowed to occur for 5 minutes. Washing with PBS was performed three times for 5 minutes each, and then PBS was added thereto to prevent drying. Parafilm was attached to the 24-well plate cover, and then PBS-T (PBS+0.1% Tween 20) containing 3% BSA was dropped by 20 μl onto the parafilm. […] Then, washing with PBS-T (PBS+0.1% Tween 20) was performed twice, and a fluorescence microscope was used to identify the staining. […] Then, the cover glass was placed thereon, and a fluorescence microscope was used to take a fluorescence image.

Assay [4] has as its system KM12C cell line tumor. As to the kind of experiment: Effective dose concentration in animal model transplanted with KM12C. The assay is classed as in vivo, BALB/c nude mice. Particulars: once a day for 2 weeks. How it is done: 5-Week-old female BALB/c nude mice were purchased and acclimatized for 1 week. Then, human-derived colon cancer cell line KM12C (1.5×10^6 cells/mice) was diluted in PBS, and injected subcutaneously (100 μl) into the right dorsal side of the mice. Example 18 was orally administered at respective doses when the tumor reached a size of about 100 mm^3. The drug was administered once a day for 2 weeks, and tumor size and body weight were measured twice a week to perform comparative analysis. After completion of the drug administration, the experimental animals were euthanized, and then the tumors were extracted and weighed to perform comparative analysis.

The subject of assay [5] is Colo320HSR cell line overexpressing RON mutants (mt #1: Δ160, mt #2: Δ155). As to the kind of experiment: Drug efficacy after overexpression of RON mutants in Colo320HSR (trypan blue, Western blotting). The assay is classed as cell-based. How it is done: Efficacy analysis for RON mutants was performed by overexpressing RON mutants, and then identifying cell death-inducing ability through Western blotting. Colo320HSR cell line was seeded onto a 100-mm plate, and then a RON mutant #1 (Δ160)- or RON mutant #2 (Δ155)-expressing vector was introduced into the cell line using a transfection solution (Polyplus). After 24 hours, the cell line was seeded onto a 60-mm plate at 2×10^5 cells. Then, after 24 hours, while performing medium exchange, the cells were subjected to treatment with Example 18 at respective concentrations (1 μM, 5 μM) for 48 hours.
After 48 hours, the cells and cell suspensions were collected (1,500 rpm, 3 minutes), and live cells and dead cells were quantitated (n=2) through trypan blue exclusion assay. Subsequently, the remaining cells were collected and lysed by adding RIPA Lysis Buffer (T&I) to the respective cells for the purpose of identifying, with Western blotting, inhibitory capacity on active RON and cell death-inducing ability. Then, proteins were quantified by BCA kit (Pierce).
Subsequently, the proteins were reacted with primary antibodies (active RON, cleaved caspase-3, beta actin), which were diluted 1:1,000 in 5% non-fat skim milk-TBST solution, at 4° C. for 24 hours or 48 hours. Then, washing with TBST was performed three times. The resultant was reacted with anti-rabbit and anti-mouse IgG conjugated horseradish peroxidase (HRP) secondary antibodies, which were diluted at 1:1,000, at room temperature for 2 hours. Then, washing with TBST was washed three times. Subsequently, the membrane was treated with the ECL solution (GE Healthcare), and developed by exposure to an X-ray film. Then, the bands were checked.
(Immunoblotting shows a protein as a band on a membrane.)

Setting [6] is: RON mutant-transfected Colo320HSR.

SMILES strings stand for the structures.

In turn, `CCOc1ccn(-c2ccc(F)cc2)c(=O)c1C(=O)Nc1ccc(Oc2ccnc3cc(-c4ccc(CN5CCOCC5)cn4)sc23)c(F)c1.Cl` [Example 18, 4-ethoxy-N-[3-fluoro-4-({2-[5-(morpholinomethyl)pyridin-2-yl]thieno[3,2-b]pyridine-7-yl}oxy)phenyl]-1-(4-fluorophenyl)-2-oxo-1,2-dihydropyridine-3-carboxamide hydrochloride] registered a concentration for half-maximal inhibition (IC50) in assay [1] of 6.9 nM. In addition, the “Cell death, KM12C (RONΔ160)” value in assay [2] (1 μM) is 29.0. Also, the “Cell death, KM12C (RONΔ160)” value in assay [2] (5 μM) is recorded as 35.2. For the same compound, the “reactivity to drug treatment (cell death)” value in assay [3] was “no reactivity”. The tumor growth entry in assay [4] (oral at respective doses) was “inhibited in a concentration-dependent manner”. Moreover, in assay [4] (oral), the effective dose concentration is 5.214 mpk. Further, the “cell death (trypan blue exclusion assay)” value in assay [5] (1 μM, 5 μM, 48 hours, group transfected with RON mutant) was “cell death induction at the respective concentrations is observed”. Besides, in assay [5] (setting [6]), the “active RON expression level (Western blotting)” value is “decreased expression level” and the “cleaved caspase 3 expression level (Western blotting)” value is “increased expression level”.

Values taken from patent US20230172914A1, “BIOMARKER-BASED THERAPEUTIC COMPOSITION” (WELLMARKER BIO CO., LTD., priority 2019, published 2023).
